Results on 34 molecules are retold here after patent US20160362408A1 (Bayer Pharma Aktiengesellschaft, priority 2013, published 2016).

The test addresses T1, recombinant guanylate cyclase reporter cell line (Rattus norvegicus, UniProt P19686+P20595).
T1 construct: expressed in transfected cells
T1 sequence (P19686 1-690): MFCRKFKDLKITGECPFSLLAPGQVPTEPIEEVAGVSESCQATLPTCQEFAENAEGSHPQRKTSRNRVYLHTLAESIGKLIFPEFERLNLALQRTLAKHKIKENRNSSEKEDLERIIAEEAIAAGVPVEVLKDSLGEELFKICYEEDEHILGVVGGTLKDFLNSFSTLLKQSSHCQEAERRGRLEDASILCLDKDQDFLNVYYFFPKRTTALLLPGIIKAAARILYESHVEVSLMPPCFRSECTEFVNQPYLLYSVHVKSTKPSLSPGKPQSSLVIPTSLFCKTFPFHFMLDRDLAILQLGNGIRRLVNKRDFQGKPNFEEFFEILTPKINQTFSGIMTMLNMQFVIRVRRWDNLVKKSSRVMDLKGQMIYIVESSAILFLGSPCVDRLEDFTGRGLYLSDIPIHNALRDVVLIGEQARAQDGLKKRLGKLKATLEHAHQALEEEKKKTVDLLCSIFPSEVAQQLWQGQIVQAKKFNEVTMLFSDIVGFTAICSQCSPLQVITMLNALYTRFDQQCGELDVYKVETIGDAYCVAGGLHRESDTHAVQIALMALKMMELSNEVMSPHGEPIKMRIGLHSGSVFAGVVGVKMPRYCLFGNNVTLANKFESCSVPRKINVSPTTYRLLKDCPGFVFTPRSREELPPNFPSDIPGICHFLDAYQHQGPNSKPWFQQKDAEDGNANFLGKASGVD
T1 sequence (P20595 1-619): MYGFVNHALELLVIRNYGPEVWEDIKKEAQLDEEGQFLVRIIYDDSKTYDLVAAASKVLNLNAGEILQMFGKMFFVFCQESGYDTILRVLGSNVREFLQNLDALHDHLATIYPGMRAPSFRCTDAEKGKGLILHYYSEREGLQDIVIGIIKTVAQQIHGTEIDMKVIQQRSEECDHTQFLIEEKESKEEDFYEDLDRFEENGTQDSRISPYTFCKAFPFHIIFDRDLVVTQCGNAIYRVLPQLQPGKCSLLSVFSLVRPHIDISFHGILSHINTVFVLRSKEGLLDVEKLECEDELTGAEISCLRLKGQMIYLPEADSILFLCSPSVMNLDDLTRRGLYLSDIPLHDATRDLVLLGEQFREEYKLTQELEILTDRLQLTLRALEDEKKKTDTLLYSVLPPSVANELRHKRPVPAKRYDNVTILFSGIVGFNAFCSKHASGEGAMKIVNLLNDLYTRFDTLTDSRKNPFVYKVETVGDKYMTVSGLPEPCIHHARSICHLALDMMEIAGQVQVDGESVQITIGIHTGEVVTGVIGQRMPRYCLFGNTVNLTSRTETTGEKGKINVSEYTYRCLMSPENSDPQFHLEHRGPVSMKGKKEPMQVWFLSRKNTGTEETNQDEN
The test can be described thus: Effect on a recombinant guanylate cyclase reporter cell line. Conditions: MEC = minimum effective concentration; in some cases mean values for individual determinations. The test is classed as cell-based. The method in brief: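 Compounds tested in a recombinant guanylate cyclase reporter cell line per a published method. Potency expressed as minimum effective concentration (MEC), sometimes as mean of individual determinations.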
Take `Cc1nc2c(OCC3CCCCC3)cccn2c1C(=O)Nc1cccc(CCC(=O)O)c1` [Example 150, 3-[3-({[8-(Cyclohexylmethoxy)-2-methylimidazo[1,2-a]pyridin-3-yl]carbonyl}amino)phenyl]propanoic acid]: the MEC stood at 1.0 µM.

Turning to `Cc1nc2c(OCc3c(F)cccc3F)cccn2c1C(=O)Nc1ccc2c(c1)OCC(=O)N2` [Example 6], the MEC is 0.1 µM.

As to `Cc1nc2c(OCc3c(F)cccc3F)cccn2c1C(=O)Nc1cnn(COCC(F)(F)F)c1` [Example 90], the MEC was 0.3 µM.

Turning to `Cc1nc2c(OCc3c(F)cccc3F)cccn2c1C(=O)Nc1c(C(C)(C)O)n[nH]c1C` [Example 88], the MEC is 0.65 µM.

On to `Cc1nc2c(OCc3c(F)cccc3F)cccn2c1C(=O)Nc1ccnc2cc(C(F)(F)F)ccc12` [Example 100], for which the MEC came to 1.65 µM.

For `Cc1nc2c(OCc3c(F)cccc3F)cccn2c1C(=O)Nc1n[nH]c2ccc(C(F)(F)F)cc12` [Example 114, 8-[(2,6-Difluorobenzyl)oxy]-2-methyl-N-[5-(trifluoromethyl)-1H-indazol-3-yl]imidazo[1,2-a]pyridine-3-carboxamide], the MEC worked out at 0.3 µM.

Turning to `Cc1nc2c(OCc3c(F)cccc3F)cccn2c1C(=O)Nc1ccc(N2CCN(C)CC2)c(C(F)(F)F)c1` [Example 97], the MEC turned out to be 1.0 µM.

Take `Cc1nc2c(OCc3c(F)cccc3F)cccn2c1C(=O)Nc1ccc(C)c2ncccc12` [Example 72]: the MEC was 0.3 µM.

As to `Cc1nn(S(C)(=O)=O)c(C)c1NC(=O)c1c(C)nc2c(OCc3c(F)cccc3F)cccn12` [Example 154, 8-[(2,6-Difluorobenzyl)oxy]-N-[3,5-dimethyl-1-(methylsulphonyl)-1H-pyrazol-4-yl]-2-methylimidazo[1,2-a]pyridine-3-carboxamide], the MEC was found to be 1.0 µM.

Take `Cc1nn(CC(F)(F)F)cc1NC(=O)c1c(C)nc2c(OCc3c(F)cccc3F)cccn12` [Example 33, 8-[(2,6-difluorobenzyl)oxy]-2-methyl-N-[3-methyl-1-(2,2,2-trifluoroethyl)-1H-pyrazol-4-yl]imidazo[1,2-a]pyridine-3-carboxamide]: the MEC was determined as 1.0 µM.

In the case of `Cc1nc2c(OCc3c(F)cccc3F)cccn2c1C(=O)Nc1ccc(Cl)c2ccccc12` [Example 62], the MEC was 1.0 µM.

In the case of `Cc1nc2c(OCc3c(F)cccc3F)cccn2c1C(=O)Nc1ccccc1F` [Example 10], the MEC stood at 0.3 µM.

`Cc1cccc(C)c1NC(=O)c1c(C)nc2c(OCc3c(F)cccc3F)cccn12` [Example 58, 8-[(2,6-difluorobenzyl)oxy]-N-(2,6-dimethylphenyl)-2-methylimidazo[1,2-a]pyridine-3-carboxamide]: the MEC was 0.3 µM.

As to “8-[(2,6-difluorobenzyl)oxy]-N-[1-(2- hydroxyethyl)-5-methyl-3-(trifluoromethyl)-1H- pyrazol-4-yl]-2,6-dimethylimidazo[1,2-a]pyridine- 3-carboxamide [Example 118]”, the MEC was determined as 0.1 µM.

With `Cc1nc(NC(=O)c2c(C)nc3c(OCc4c(F)cccc4F)cccn23)oc1C` [Example 144, 8-[(2,6-difluorobenzyl)oxy]-N-(4,5-dimethyl-1,3-oxazol-2-yl)-2-methylimidazo[1,2-a]pyridine-3-carboxamide], the MEC was determined as 3.0 µM.

With `Cc1nn(CCO)c(C)c1NC(=O)c1c(C)nc2c(OCc3c(F)cccc3F)cc(Cl)cn12` [Example 42, 6-chloro-8-[(2,6-difluorobenzyl)oxy]-N-[1-(2-hydroxyethyl)-3,5-dimethyl-1H-pyrazol-4-yl]-2-methylimidazo[1,2-a]pyridine-3-carboxamide], the MEC came out at 0.1 µM.

As to `Cc1nc2c(OCc3c(F)cccc3F)cccn2c1C(=O)Nc1cnn(CCN2CCC(F)(F)CC2)c1` [Example 127, 8-[(2,6-Difluorobenzyl)oxy]-N-{1-[2-(4,4-difluoropiperidin-1-yl)ethyl]-1H-pyrazol-4-yl}-2-methylimidazo[1,2-a]pyridine-3-carboxamide], the MEC was found to be 1.0 µM.

For the molecule `Cc1cc(N2CCNCC2)ccc1NC(=O)c1c(C)nc2c(OCc3c(F)cccc3F)cc(Cl)cn12` [Example 108, 6-chloro-8-[(2,6-difluorobenzyl)oxy]-2-methyl-N-[2-methyl-4-(piperazin-1-yl)phenyl]imidazo[1,2-a]pyridine-3-carboxamide], the MEC turned out to be 1.0 µM.

For the molecule `Cc1nc2c(OCc3c(F)cccc3F)cccn2c1C(=O)Nc1cccc(C(C)O)c1` (stereo not shown) [Example 17], the MEC worked out at 0.3 µM.

In the case of `Cc1cccc(NC(=O)c2c(C)nc3c(OCc4c(F)cccc4F)cccn23)n1` [Example 5], the MEC stood at 0.3 µM.

In the case of `Cc1cc(OCc2c(F)cccc2F)c2nc(C)c(C(=O)Nc3cccc(S(C)(=O)=O)c3)n2c1` [Example 152, 8-[(2,6-Difluorobenzyl)oxy]-2,6-dimethyl-N-[3-(methylsulphonyl)phenyl]imidazo[1,2-a]pyridine-3-carboxamide], the MEC turned out to be 1.0 µM.

Turning to `Cc1nc2c(OCc3c(F)cccc3F)cccn2c1C(=O)Nc1cc(F)cc(F)c1N` [Example 143, N-(2-Amino-3,5-difluorophenyl)-8-[(2,6-difluorobenzyl)oxy]-2-methylimidazo[1,2-a]pyridine-3-carboxamide], the MEC turned out to be 0.3 µM.

Take `Cc1nc2c(OCc3c(F)cccc3F)cccn2c1C(=O)Nc1cnn(CCOC(N)=O)c1` [Example 138, 2-{4-[({8-[(2,6-Difluorobenzyl)oxy]-2-methylimidazo[1,2-a]pyridin-3-yl}carbonyl)amino]-1H-pyrazol-1-yl}ethyl carbamate]: the MEC amounted to 10 µM.

As to `Cc1nc2c(OCc3c(F)cccc3F)cccn2c1C(=O)Nc1ccnc2cc(Cl)ccc12` [Example 77, N-(7-Chloroquinolin-4-yl)-8-[(2,6-difluorobenzyl)oxy]-2-methylimidazo[1,2-a]pyridine-3-carboxamide], the MEC is 0.1 µM.

As to `Cc1cc(OCc2c(F)cccc2F)c2nc(C)c(C(=O)Nc3c(C)nn(CCO)c3C)n2c1` [Example 87], the MEC was determined as 0.3 µM.

For the molecule `Cc1nc2c(OCc3c(F)cccc3F)cc(Cl)cn2c1C(=O)Nc1ccc(N2CCNCC2)c(F)c1` [Example 109, 6-chloro-8-[(2,6-difluorobenzyl)oxy]-N-[3-fluoro-4-(piperazin-1-yl)phenyl]-2-methylimidazo[1,2-a]pyridine-3-carboxamide], the MEC came to 3.0 µM.

With `Cc1nc2c(OCc3c(F)cccc3F)cccn2c1C(=O)Nc1cc[nH]n1` [Example 19], the MEC was 3.0 µM.

As to `Cc1nn(C)c(C)c1NC(=O)c1c(C)nc2c(OCc3c(F)cccc3F)cccn12` [Example 57, 8-[(2,6-Difluorobenzyl)oxy]-2-methyl-N-(1,3,5-trimethyl-1H-pyrazol-4-yl)imidazo[1,2-a]pyridine-3-carboxamide], the MEC was determined as 3.0 µM.

As to `CCn1nccc1NC(=O)c1c(C)nc2c(OCc3c(F)cccc3F)cccn12` [Example 20], the MEC was 1.0 µM.

As for `Cc1cc(OCc2c(F)cccc2F)c2nc(C)c(C(=O)Nc3ccc(F)cc3CN)n2c1` [Example 113, N-[2-(Aminomethyl)-4-fluorophenyl]-8-[(2,6-difluorobenzyl)oxy]-2,6-dimethylimidazo[1,2-a]pyridine-3-carboxamide], the MEC came out at 0.3 µM.

On to `Cc1nc2c(OCc3c(F)cccc3F)cccn2c1C(=O)Nc1ccc(N2CCN(C)CC2)cc1` [Example 96], for which the MEC is 3.0 µM.

For the molecule `Cc1nc2c(OCc3c(F)cccc3F)cccn2c1C(=O)Nc1cccc(N2CCN(C)CC2)c1` [Example 99], the MEC was found to be 3.0 µM.

Turning to `Cc1ccc2cccnc2c1NC(=O)c1c(C)nc2c(OCc3c(F)cccc3F)cccn12` [Example 65], the MEC was 1.0 µM.

For the molecule `Cc1nc2c(OCc3c(F)cccc3F)cccn2c1C(=O)Nc1cnn(CCN2CCS(=O)(=O)CC2)c1` [Example 129, 8-[(2,6-difluorobenzyl)oxy]-N-{1-[2-(1,1-dioxidothiomorpholin-4-yl)ethyl]-1H-pyrazol-4-yl}-2-methylimidazo[1,2-a] pyridine-3-carboxamide], the MEC was 10 µM.
